Results as given in patent US20160060260A1, “BROMODOMAIN INHIBITORS FOR TREATING DISEASE” (Board of Regents, The University of Texas System, priority 2014, published 2016).

What was measured:
[1] = biological target: T1, Recombinant human His-tagged Trim24-PHD-bromodomain (Homo sapiens, UniProt O15164); assay: Trim24 AlphaScreen Assay; format: binding; settings: 5 nM Trim24 protein, 15 nM biotinylated H3K23ac (1-33aa) peptide
T1 construct: Recombinant human His-tagged Trim24-PHD-bromodomain (produced in-house); made in house
T1 sequence (O15164 824-1006 limits assumed): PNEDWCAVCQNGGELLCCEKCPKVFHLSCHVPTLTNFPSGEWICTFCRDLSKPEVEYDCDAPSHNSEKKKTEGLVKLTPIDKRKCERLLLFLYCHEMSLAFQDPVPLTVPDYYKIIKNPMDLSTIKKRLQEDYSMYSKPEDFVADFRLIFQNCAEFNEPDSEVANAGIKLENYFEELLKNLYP
In short: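 AlphaScreen read-out after 2 h with streptavidin donor and Ni-chelate acceptor beads at 10 ug/mL each, following 1 h room-temperature incubation of compound, His-tagged PHD-bromodomain protein and biotin-H3K23ac (1-33aa) peptide in Hepes pH 7.5 buffer with NaCl and Triton X-100. Signals normalised between no-compound and no-protein wells; IC50 from four-parameter logistic curves.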

[2] = biological target: T2, TRIM24 (Homo sapiens, UniProt O15164); assay: BROMOscan DiscoveRx Binding Constant Assay (TRIM24); settings: qPCR readout
T2 construct: purchased DiscoveRx (BROMOscan); host or cells: T7 phage in E. coli host derived from BL21
T2 sequence (O15164 899-1004 limits assumed): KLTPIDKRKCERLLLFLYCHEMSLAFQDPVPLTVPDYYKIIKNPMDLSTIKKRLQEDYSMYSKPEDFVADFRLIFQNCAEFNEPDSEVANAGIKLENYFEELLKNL
Description: (§1) Compounds that bind the bromodomain active site and directly (sterically) or indirectly (allosterically) prevent bromodomain binding to the immobilized ligand, will reduce the amount of protein captured on the solid support (Panels A & B). […] Screening “hits” are identified by measuring the amount of bromodomain captured in test versus control samples by using a quantitative, precise and ultra-sensitive qPCR method that detects the associated DNA label. In a similar manner, dissociation constants (Kd's) for test compound-bromodomain interactions are calculated by measuring the amount of bromodomain captured on the solid support as a function of the test compound concentration.
(§2) Bromodomain assays. T7 phage strains displaying bromodomains were grown in parallel in 24-well blocks in an E. coli host derived from the BL21 strain. E. coli were grown to log-phase and infected with T7 phage from a frozen stock (multiplicity of infection=0.4) and incubated with shaking at 32° C. until lysis (90-150 minutes). The lysates were centrifuged (5,000×g) and filtered (0.2 μm) to remove cell debris. Streptavidin-coated magnetic beads were treated with biotinylated small molecule or acetylated peptide ligands for 30 minutes at room temperature to generate affinity resins for bromodomain assays. The liganded beads were blocked with excess biotin and washed with blocking buffer (SeaBlock (Pierce), 1% BSA, 0.05% Tween 20, 1 mM DTT) to remove unbound ligand and to reduce non-specific phage binding. […] Test compounds were prepared as 1000× stocks in 100% DMSO and subsequently diluted 1:10 in monoethylene glycol (MEG) to create stocks at 100× the screening concentration (resulting stock solution is 10% DMSO/90% MEG). The compounds were then diluted directly into the assays such that the final concentration of DMSO and MEG were 0.1% and 0.9%, respectively. All reactions were performed in polystyrene 96-well plates in a final volume of 0.135 ml.
(§3) The beads were then re-suspended in elution buffer (lx PBS, 0.05% Tween 20, 2 μM nonbiotinylated affinity ligand) and incubated at room temperature with shaking for 30 minutes. The bromodomain concentration in the eluates was measured by qPCR.
(§4) An 11-point 3-fold serial dilution of each test compound was prepared in 100% DMSO at 1000× final test concentration. This serial is then diluted to 100× in ethylene glycol and subsequently diluted to 1× in the assay (final DMSO concentration=0.1%, Ethylene glycol concentration=0.9%). […] If the initial Kd determined was <0.169 nM (the lowest concentration tested), the measurement was repeated with a serial dilution starting at a lower top concentration.
(§5) Binding constants (Kd's) were calculated with a standard dose-response curve using the Hill equation: Response=Background+Signal−Background 1+(Kd Hill Slope/DoseHill Slope) The Hill Slope was set to −1. Curves were fitted using a non-linear least square fit with the Levenberg-Marquardt algorithm.

[3] = biological target: T3, BRPF1 (Homo sapiens, UniProt P55201); assay: BROMOscan DiscoveRx Binding Constant Assay (BRPF1); settings: qPCR readout
T3 construct: purchased DiscoveRx (BROMOscan); host or cells: T7 phage in E. coli host derived from BL21
T3 sequence (P55201 628-732 limits assumed): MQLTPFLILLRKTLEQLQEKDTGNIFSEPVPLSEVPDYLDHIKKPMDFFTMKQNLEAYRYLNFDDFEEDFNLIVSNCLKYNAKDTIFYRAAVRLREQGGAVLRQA
Description: as §1, §2, §3, §4, §5

[4] = biological target: T4, BRPF2 (Homo sapiens, UniProt O95696); assay: BROMOscan DiscoveRx Binding Constant Assay (BRPF2); settings: qPCR readout
T4 construct: purchased DiscoveRx (BROMOscan); host or cells: T7 phage in E. coli host derived from BL21
T4 sequence (O95696 562-666 limits assumed): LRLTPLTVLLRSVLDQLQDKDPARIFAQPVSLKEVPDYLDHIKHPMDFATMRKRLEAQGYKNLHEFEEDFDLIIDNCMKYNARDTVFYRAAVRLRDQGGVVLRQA
Description: as §1, §2, §3, §4, §5

[5] = biological target: T5, BRPF3 (Homo sapiens, UniProt Q9ULD4); assay: BROMOscan DiscoveRx Binding Constant Assay (BRPF3); settings: qPCR readout
T5 construct: purchased DiscoveRx (BROMOscan); host or cells: T7 phage in E. coli host derived from BL21
T5 sequence (Q9ULD4 589-693 limits assumed): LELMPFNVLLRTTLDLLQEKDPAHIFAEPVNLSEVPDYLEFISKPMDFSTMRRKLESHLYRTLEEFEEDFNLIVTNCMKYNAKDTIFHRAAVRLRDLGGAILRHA
Description: as §1, §2, §3, §4, §5

Row | IC50 [1] [nM] | Kd [2] [nM] | Kd [3] [nM] | Kd [4] [nM] | Kd [5] [nM] | SMILES
1 | 10 to 100 | 1 to 10 | 1 to 10 | 11 to 100 | 11 to 100 | CCCOc1cccc(Oc2cc3c(cc2NS(=O)(=O)c2ccc(OC)c(OC)c2)n(C)c(=O)n3C)c1 [Example 110, N-(1,3-dimethyl-2-oxo-6-(3-propoxyphenoxy)-2,3-dihydro-1H-benzo[d]imidazol-5-yl)-3,4-dimethoxybenzenesulfonamide]
2 | 1 to 10 | < 1 | 1 to 10 | 1 to 10 | 11 to 100 | CCCOc1cc(OCCCCCCN)cc(Oc2cc3c(cc2NS(=O)(=O)c2cn(C)cn2)n(C)c(=O)n3C)c1 [Example 8, N-(6-(3-((6-aminohexyl)oxy)-5-propoxyphenoxy)-1,3-dimethyl-2-oxo-2,3-dihydro-1H-benzo[d]imidazol-5-yl)-1-methyl-1H-imidazole-4-sulfonamide 2,2,2-trifluoroacetate]
3 | 10 to 100 | 1 to 10 | 1 to 10 | 1 to 10 | 11 to 100 | Cn1c(=O)n(C)c2cc(Oc3cccc(OCC(F)(F)F)c3)c(NS(=O)(=O)c3cccnc3)cc21 [Example 125, N-(1,3-dimethyl-2-oxo-6-(3-(2,2,2-trifluoroethoxy)phenoxy)-2,3-dihydro-1H-benzo[d]imidazol-5-yl)pyridin-3-sulfonamide]

Row | SMILES | IC50 [1] [nM] | Kd [2] [nM] | Kd [3] [nM] | Kd [4] [nM] | Kd [5] [nM]
4 | Cc1nc(S(=O)(=O)Nc2cc3c(cc2Oc2cccc(OCC(C)C)c2)n(C)c(=O)n3C)cn1C [Example 45, N-(6-(3-isobutoxyphenoxy)-1,3-dimethyl-2-oxo-2,3-dihydro-1H-benzo[d]imidazol-5-yl)-1,2-dimethyl-1H-imidazole-4-sulfonamide] | 10 to 100 | 1 to 10 | 11 to 100 | 11 to 100 | 11 to 100
